Laboratory results: patent publication US8017346B2, “Method of quantifying the G protein-coupled receptor (GPCR)/G protein coupling using a cell membrane array” (Universidad Del Pais Vasco, priority 2005, dated 2011)
Peptide text beside a SMILES is read from it.

Tested on: galanin receptors
Assay: [35S]GTPγS autoradiography on tissue membrane arrays with galanin receptor ligands
Format: biochemical, rat
Details: for [35S]GTPγS fixing in the presence of ligand versus baseline: pituitary gland membranes, tissue array (FIG. 4); for effect on the action of galnon on [35S]GTPγS fixing: combination with galnon, tissue arrays (FIG. 5)
From the text: 5 male Sprague Dawley rats (250-275 g) were anesthetized and sacrificed according to the guide approved by the Ethics Committee of the Faculty of Medicine of the University of the Basque Country, following the internationally accepted guidelines (86/609/EEC). The organs and tissue which were to be used in the experiment (pancreas, stomach, small intestine, spleen, heart, lung, liver, testicle, vas deferens, kidney, suprarenal glands, bone marrow and brain: frontal cortex, striatum, brain stem, pituitary gland, olfactory nuclei, hippocampus, hypothalamus, thalamus, colliculus and cerebellum) were then removed. These samples were stored at −70° C. until the experiment was carried out.
The tissue samples (1 g) were homogenized using a teflon-glass homogenizer (10 strokes at 1,500 rpm) in 30 volumes of homogenization buffer [1 mM ethylene glycol-bis(β-aminoethyl)-N,N,N′,N′-tetraacetic acid (EGTA), 3 mM MgCl2, 1 mM dithiothreitol (DTT) and 50 mM Tris-HCl, pH 7.4] supplemented with […] sucrose. The crude homogenate was centrifuged at 3,000×g and at 4° C. for 5 minutes and the resulting supernatant was again centrifuged at 40,000×g for 10 minutes (4° C.). The pellet was washed in 20 volumes of homogenization buffer and re-centrifuged in the same conditions. Aliquots were carried out and stored at −70° C. The protein content was determined according to the Bradford method [Bradford M M., Anal Biochem 1976; 72:248-54] using bovine serum albumin (BSA) as a standard.
1 mg/ml aliquots of each tissue were taken and with this suspension, 1 μl microspots were made on glass supports (slides) which were previously treated with concentrated orthophosphoric acid (85%); to that end, the slides were first washed with acetone and then with anhydrous isopropanol, they were dried and finally submersed in concentrated orthophosphoric acid (85%) for 24 hours, they were washed with distilled water (Millipore) and air-dried. The arrays were frozen at −70° C. until the experiment was carried out.
The slides with tissue sections were allowed to dry for 15 minutes at room temperature. The tissue section were then pre-incubated in assay buffer at pH 7.4 [50 mM Tris-HCl, 3 mM MgCl2, 0.2 mM EGTA, 100 mM NaCl, 3 mU/ml adenosine deaminase] for 20 minutes at room temperature to eliminate, as much as possible, the presence of endogenous neurotransmitters; afterwards, the sections were pre-incubated again in the assay buffer supplemented with guanosine diphosphate (GDP) (2 mM) and DTT (1 mM).
The slides were then incubated for 2 hours at 30° C. in the previous assay buffer, to which the following substances were added according to the different conditions of the experiment:
Baseline: 0.04 nM [^35S] GTPγS
Activated: 0.04 nM [^35S] GTPγS+agonist
Inhibited: 0.04 nM [^35S]GTPγS+agonist+antagonist
Non-specific: 0.04 nM [^35S] GTPγS+10 μM GTPγS
Once this time had elapsed, 2 washings of 15 minutes in the buffer 50 mM Tris-HCl, pH 7.4 at 4° C. were carried out. After the second washing, the sections were submersed in distilled water at 4° C. to eliminate the salts and the slide was dried by means of applying a cold air current.
The slides with the corresponding sections were then exposed to a radiosensitive film (Kodak Biomax MR) which was developed in a manner similar to a photographic film. The labeling was quantified according to the different gray densities at nCi/g of tissue equivalent. To that end, each film was exposed together with the previously calibrated commercial standards (Amersham). The quantification was carried out with microscopic anatomical resolution in a computerized image analysis system, using NIH-image software, of G protein activation.
The following ligands were used to study [^35S] GTPγS fixing in the absence (baseline) and in the presence of galanin receptor ligands: galanin, galnon, gal (2-11), M15 [galanin-(1-13)-substance P-5-11 amide], M35 [galanin-(1-13)-bradykinin-(2,9) amide] and M40 [galanin-(1-13)-[…]amide].

For `Cc1cc(=O)oc2cc(NC(=O)[C@H](CCCCN)NC(=O)[C@H](CC3CCCCC3)NC(=O)OCC3c4ccccc4-c4ccccc43)ccc12` [galnon] (HELM PEPTIDE1{[O=C(OCC1c2ccccc2-c2ccccc21)[*:2]].[Cha].K.[Cc1cc(=O)oc2cc(N[*:1])ccc12]}$$$$V2.0), the “[35S]GTPγS fixing in the presence of ligand versus baseline” value was “increase”.
For “galanin-(1-13)-Pro-Pro-Ala-Leu-Ala-Leu-Ala-Leu-Ala amide [M40]”, the “effect on the action of galnon on [35S]GTPγS fixing” value was “antagonized” and the “[35S]GTPγS fixing in the presence of ligand versus baseline” value was “increase”.
For “galanin-(1-13)-substance P-5-11 amide [M15]”, the “[35S]GTPγS fixing in the presence of ligand versus baseline” value was “increase”.
For gal (2-11): galanin receptor ligand, the “[35S]GTPγS fixing in the presence of ligand versus baseline” value was “increase”.
“galanin-(1-13)-bradykinin-(2,9) amide [M35]” was tested, and the “effect on the action of galnon on [35S]GTPγS fixing” value was “antagonized” and the “[35S]GTPγS fixing in the presence of ligand versus baseline” value was “increase”.
